The test system of data set [1] is human colorectal carcinoma HT29. Put plainly: Western blot of signal transduction pathways in HT29 cells. As to conditions: HT29, IC50 dose. It is filed as cell-based. As for the experimental part:
The newly synthesized hydrazones RPC038, RPC042, and RPC046 had shown anti-tumor activity against 60 human cancer cell lines panel of the National Cancer Institute and on multi-drug resistant cell lines. The present studies were conducted to evaluate their action on signal transduction pathways in human colorectal carcinoma HT29. All the three compounds were examined at their IC50 doses.
Human colorectal carcinoma HT29 cells were obtained from the National Cancer Institute, Bethesda, Md., USA, and maintained in 5% CO2 at 37° C. in minimum essential media (Life Technologies, Inc., Grand Island, N.Y., USA) supplemented with 1% penicillin, streptomycin (Invitrogen, Carlsbad, Calif., USA), and 10% fetal bovine serum for optimal growth. HT29 cells (1×10^6) were plated in […], and 24 h later, fresh media was added and treated with the RPC038, RPC042 and RPC046 for indicated time points (2, 4, 8, 16 and 24 h). The cells were then washed with cold phosphate buffered saline (PBS) and taken in 1 ml PBS on ice and centrifuged at 4° C. The pellet was resuspended in appropriate volumes of radio immunoprecipitation assay buffer with protease inhibitor, kept on ice for 45 min and subsequently centrifuged at 4° C. An aliquot of supernatant (protein extract) was used to estimate the protein concentration. An aliquot of protein extract (40 μg) was subjected to Western blot analysis on a 12% polyacrylamide gel and transferred to nitrocellulose membrane. Blots were blocked, incubated with primary anti-pMEK, pERK, pJNK, pcjun, ERK, JNK, Cjun, Caspase-8, Caspase-6, PARP cleavage, or GAPDH antibodies (Cell Signaling Technology, Danvers, Mass.) and then conjugated with a secondary anti-mouse or an anti-rabbit horseradish […] antibody, and detected by ChemiDoc™ XRS+ System with Image Lab™ Software.
In general terms: In western blotting, separated proteins are transferred to a membrane and probed.

Data set [2] has as its system human cervical adenocarcinoma HeLa. As to the kind of experiment: MTS cytotoxicity assay, HeLa. The data set is classed as cell-based. As to conditions: 48 h incubation. The procedure: (§1) In order to obtain information about the growth-inhibiting action of hydrazones reported in the present invention on tumor cells, growth inhibition was assessed for the following human tumor cell lines: human myelogenous leukemia K562, human cervical adenocarcinoma HeLa, human colon adenocarcinoma Caco-2, human colon carcinoma HT-29, human colon carcinoma HCT-15, and human breast carcinoma MCF-7.
(§2) The K562, HeLa, HT-29, HCT-15, Caco-2, and MCF-7 cell lines were obtained from the American type Culture Collection (ATCC, Manassas, Va.). K562 cells were maintained in RPMI 1640 medium (Gibco/Life Technologies, Gaithersburg, Md.) containing 10% heat-inactivated fetal bovine serum (FBS) (Atlanta Biologicals, Atlanta, Ga.) and 10000 U/L penicillin and 50 mg/L streptomycin. HeLa, HT-29, HCT-15, Caco-2 and MCF-7 cells were maintained in MEM with Earl's balanced salts, 10% FBS, penicillin, and streptomycin as above. Logarithmically growing HT-29, Caco-2, and MCF-7 cells were incubated with 0.05% trypsin containing 1 mM EDTA at 37° C. for about 5 min until cells were nonadherent and formed a single cell suspension. Trypsin activity was neutralized by adding 20-fold excess of the serum-containing medium. Cells were cultured at 37° C. in an atmosphere of air and 5% CO2.
(§3) Cytotoxicity assays were conducted by tetrazolium reduction of 3-(4,5-dimethylthiazol-2-yl)-5-(3-carboxymethoxyphenyl)-2-(4-sulfophenyl)-2H-tetrazolium (MTS) with N-methylphenazonium methyl sulfate (PMS) (CellTiter Assay, Promega, Madison, Wis.). Logarithmically growing cells were plated in 0.1 mL aliquots in 96-well microtiter plates. Cells were plated at an initial density of about 5000 cells/mL and allowed to acclimatize for 24 h. Cell suspensions were treated with various dilutions of compounds in triplicate, mixed well, and allowed to incubate for 48 h at 37° C. in an atmosphere of air and 5% CO2. To the cell suspension was added 20 μL of tetrazolium reagent, the mixture was incubated for 2 h at 37° C. in an atmosphere of air and 5% CO2, and absorbance at 490 nm was read by microplate reader. Control plates with serial dilutions of cell types were counted as a control for the assay. In all cases, controls indicated a linear response versus cell number, R^2≧0.99.
On the technique in general: Tetrazolium assays rely on reduction of a dye to a coloured formazan, in cell work by metabolically active cells.

Data set [3] has as its system 60 human tumor cell lines. Put plainly: NCI 60 human tumor cell line screen, all cell lines. As to conditions: for cells found to be the most sensitive: NCI screen, by cancer type; for mean GI50 (MG-MID): average of the GI50 values for all the cell lines tested, drug concentrations 10^−4-10^−8 M, read-out: MG-MID (mean graph midpoint). It is filed as cell-based. The source says:
(§4) Selected compounds were submitted for testing in the organ-specific panel of human tumor cell lines at the National Cancer Institute, Bethesda, Md. This screen utilized 60 human tumor cell lines, representing leukemia, melanoma, and cancers of the lung, colon, brain, ovary, kidney, prostate, and breast (Boyd, M. R., “Status of the NCl preclinical antitumor drug discovery screen”. In Principles and practice of oncology updates; De Vita, V. T., Jr. Hellman, S., Rosenberg, S. A., Eds.; Lippincott: Philadelphia, Pa., 1989; Vol. 3, pp 1-12).
(§5) The MG MID value is the average of the GI50 values for all the cell lines tested for drug concentrations in the range of 10^−4-10^−8 M (See website domain: dtp.nci.nih.gov/dtp).

In another data set the test system is melanoma cell lines. As to the kind of experiment: NCI 60 human tumor cell line screen, melanoma. As to conditions: arithmetic mean of two to nine cancer cell lines, read-out: Inhibitory concentration GI50, melanoma. It is filed as cell-based.
Text: as §4, §5

Data set [4] deals with human colorectal carcinoma HT29. As to the kind of experiment: Annexin-V FACS analysis of apoptosis. It is filed as cell-based. The note with it: FIGS. 3 and 4, treated versus control cells. The procedure: This activation was through ERK signaling and not through JNK signaling, resulting in PARP cleavage after 16 h. […] Activation of NFkB (p50) was also observed following treatment with these compounds.

Data set [5] deals with nonsmall cell lung cancer cell lines. As to the kind of experiment: NCI 60 human tumor cell line screen, NSCL. It is filed as cell-based. The note with it: arithmetic mean of two to nine cancer cell lines, read-out: Inhibitory concentration GI50, NSCL.
Text: as §4, §5

Data set [6] relates to human colon carcinoma HCT-15. As to the kind of experiment: MTS cytotoxicity assay, HCT-15. It is filed as cell-based. As for the experimental part:
as §1, §2, §3

For data set [7], the system named is HL60-VCR. Put plainly: MTS cytotoxicity on MDR tumor cells, HL60-VCR. It is filed as cell-based. The note with it: Vincristine (VCR) resistant, 72 hr incubation.
Another data set concerns leukemia cell lines. Put plainly: NCI 60 human tumor cell line screen, leukemia. It is filed as cell-based. As to conditions: arithmetic mean of two to nine cancer cell lines, read-out: Inhibitory concentration GI50, leukemia.
Text: as §4, §5

For the next data set, the system named is CNS cancer cell lines. As to the kind of experiment: NCI 60 human tumor cell line screen, CNS. The data set is classed as cell-based. The note with it: arithmetic mean of two to nine cancer cell lines, read-out: Inhibitory concentration GI50, CNS.
Text: as §4, §5

Another data set concerns renal cancer cell lines. As to the kind of experiment: NCI 60 human tumor cell line screen, renal. The data set is classed as cell-based. As to conditions: arithmetic mean of two to nine cancer cell lines, read-out: Inhibitory concentration GI50, renal.
Text: as §4, §5

Data set [8] concerns human colon carcinoma HT-29. As to the kind of experiment: MTS cytotoxicity assay, HT-29. It is filed as cell-based. As for the experimental part:
as §1, §2, §3

Data set [9] has as its system prostate cancer cell lines. Put plainly: NCI 60 human tumor cell line screen, prostate. The data set is classed as cell-based. The note with it: arithmetic mean of two to nine cancer cell lines, read-out: Inhibitory concentration GI50, prostrate.
Text: as §4, §5

Data set [10] deals with human myelogenous leukemia K562. Put plainly: MTS cytotoxicity assay, K562. The data set is classed as cell-based. As for the experimental part: as §1, §2, §3
In a further data set the test system is colon cancer cell lines. Put plainly: NCI 60 human tumor cell line screen, colon. The data set is classed as cell-based. As to conditions: arithmetic mean of two to nine cancer cell lines, read-out: Inhibitory concentration GI50, colon.
Text: as §4, §5

The test system of data set [11] is ovarian cancer cell lines. As to the kind of experiment: NCI 60 human tumor cell line screen, ovarian. The data set is classed as cell-based. As to conditions: arithmetic mean of two to nine cancer cell lines, read-out: Inhibitory concentration GI50, ovarian.
Text: as §4, §5

The test system of a further data set is HL60. As to the kind of experiment: MTS cytotoxicity on MDR tumor cells, HL60. It is filed as cell-based. The note with it: 72 hr incubation.
The test system of data set [12] is human colorectal carcinoma HT29. As to the kind of experiment: Western blot of signal transduction pathways in HT29 cells. The data set is classed as cell-based. As to conditions: HT29, IC50 dose. This is another data set of the same source.
The next data set relates to breast cancer cell lines. Put plainly: NCI 60 human tumor cell line screen, breast. The data set is classed as cell-based. As to conditions: arithmetic mean of two to nine cancer cell lines, read-out: Inhibitory concentration GI50, breast.
Text: as §4, §5

For data set [13], the system named is human breast carcinoma MCF-7. Put plainly: MTS cytotoxicity assay, MCF-7. It is filed as cell-based. The procedure: as §1, §2, §3
Data set [14] deals with human colon adenocarcinoma Caco-2. As to the kind of experiment: MTS cytotoxicity assay, Caco-2. It is filed as cell-based. As for the experimental part:
as §1, §2, §3

Data set [15] deals with HL60-VCR. The note with it: MDR cell line characterisation; cited from earlier work.
The next data set concerns KB-A1000. The note with it: MDR cell line characterisation; cited from earlier work.

Here are results for four compounds from patent US9133230B2, “Hydrazone derivatives having potent antitumor activity toward multi-drug resistant tumor cells” (THE UNITED STATES OF AMERICA AS REPRESENTED BY THE …, priority 2011, dated 2015).

Each structure is given as a SMILES string. Read-outs that look alike come from different tables or passages of the source. Bounds are passed on as bounds.

In the case of `OC[C@H]1OC(n2cnc3c(NN=Cc4ccccn4)ncnc32)[C@H](O)[C@@H]1O` (stereo partly shown) [I-9], the “phosphorylation of ERK (time)” value in [1] (Western blot pERK) came out at 4 h. The “phosphorylation of JNK” value in data set [1] (Western blot pJNK (results not shown)) is “without phosphorylation of JNK”. The “MEK activation (time)” value in data set [1] (Western blot pMEK) amounted to 2 h. The “activation of cjun (time)” value in [1] (Western blot pcjun) is reported as 6 h. The Caspase activation result in data set [1] (initial studies) was “Caspase-3 activation through Caspase-6 and not through Caspase-8”. For the same compound, the GI50 in [2] is 1.2 µM; with melanoma cell lines it was 0.347 µM; in data set [5] it was 0.269 µM; in data set [6] (48 h incubation) it was less than 1 µM; in the data set on HL60-VCR [7], 1.5 µM; with leukemia cell lines it was 0.116 µM. Further, the GI50 with CNS cancer cell lines was determined as 0.271 µM; with renal cancer cell lines, 0.219 µM; in [8] (48 h incubation) it was 2 µM; in [9] it was 0.137 µM; in data set [10] (48 h incubation), 1.5 µM; with colon cancer cell lines, 0.251 µM. Moreover, the GI50 came out at 0.196 µM in data set [11]; 1 µM in the data set on HL60 (Vincristine (VCR) sensitive); 0.25 µM with breast cancer cell lines; 2 µM in data set [13] (48 h incubation); 0.4 µM in [14] (48 h incubation). For the same compound, in data set [3], the “cells found to be the most sensitive” value was “leukemia, prostate, ovarian, and renal cancer cell lines”. The mean GI50 (MG-MID) in [3] stood at 0.228 µM. Also, in data set [4], the “Apoptosis (Annexin-V, FACS analysis)” value is given as “Apoptosis was also established”. The “Activation of NFkB (p50)” value in [12] is recorded as “observed”.
`CC(C)=NNc1ncnc2c1ncn2C1O[C@H](CO)[C@@H](O)[C@H]1O` (stereo partly drawn) [I-12, (2R,3S,4R)-2-(hydroxymethyl)-5-(6-(2-(propan-2-ylidene)hydrazinyl)-9H-purin-9-yl)tetrahydrofuran-3,4-diol]: the GI50 in data set [2] (Homo sapiens, HeLa) amounted to 0.6 µM; in the data set on melanoma cell lines (Homo sapiens), 1.9 µM; in [5] (Homo sapiens), 0.786 µM; in [6] (Homo sapiens, HCT-15, 48 h incubation), 2.8 µM; in the data set with HL60-VCR [7] (HL60/VCR) it was 2.2 µM; in the data set with leukemia cell lines (Homo sapiens), 1.27 µM. The GI50 was 1.2 µM in the data set with CNS cancer cell lines (Homo sapiens); 0.516 µM in the data set with renal cancer cell lines (Homo sapiens); 1.6 µM in [8] (Homo sapiens, HT-29, 48 h incubation); 0.363 µM in data set [9] (Homo sapiens); 0.3 µM in data set [10] (Homo sapiens, K562, 48 h incubation); 0.497 µM with colon cancer cell lines (Homo sapiens). Also, the GI50 in [11] (Homo sapiens) came to 0.447 µM; in the data set on HL60 (Homo sapiens, HL-60, Vincristine (VCR) sensitive), 1.8 µM; in the data set on breast cancer cell lines (Homo sapiens) it was 0.751 µM; in [13] (Homo sapiens, MCF7, 48 h incubation), 0.2 µM; in [14] (Homo sapiens, Caco-2, 48 h incubation), 0.2 µM. Moreover, in [3] (Homo sapiens), the mean GI50 (MG-MID) stood at 0.847 µM. In addition, the “cells found to be the most sensitive” value in data set [3] is “prostate, ovarian, colon, and renal cancer cell lines”.
Consider `COc1cccc2c1C(=O)c1c(O)c3c(c(O)c1C2=O)C[C@@](O)(C(=O)CO)C[C@@H]3O[C@H]1C[C@H](N)[C@H](O)[C@H](C)O1` [doxorubicine], for which the “resistance expressed by HL60-VCR” value in the data set with HL60-VCR [15] is listed as 8 fold. The “resistance expressed by KB-A1000” value in the data set with KB-A1000 is listed as 97 fold.
With `CC[C@]1(O)C[C@@H]2CN(CCc3c([nH]c4ccccc34)[C@@](C(=O)OC)(c3cc4c(cc3OC)N(C)[C@H]3[C@@](O)(C(=O)OC)[C@H](OC(C)=O)[C@]5(CC)C=CCN6CC[C@]43[C@@H]65)C2)C1` [vinblastine], in the data set on HL60-VCR [15], the “resistance expressed by HL60-VCR” value was 620 fold. In addition, in the data set on KB-A1000, the “resistance expressed by KB-A1000” value is given as 43 fold.
